This is an account of results in ChEMBL document CHEMBL1201862, “PubChem BioAssay data set” (2004).

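Interpolation was linear, between the two tested concentrations surrounding the appropriate level; five concentrations were tested over 48 hours in 96-well plates. GI50 is the concentration that inhibits growth by half.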 Calls of active or inactive are those of the source. Cut-off read from the data, not from the text of the source: active = GI50 up to about 1.1 µM and inactive = higher.

Test systems include NCI-H522; HCT-15; IGROV-1; A549; CCRF-CEM; SK-MEL-28; NCI-H23; A498; UACC-62; M14; NCI/ADR-RES; 786-0; NCI-H226; HT-29; MOLT-4; NCI-H460; SNB-75; CAKI-1; RPMI-8226.
Common to all, as to assay: growth of human tumour cells (NCI), 48 h

For the compound `N#Cc1c(-c2ccco2)c2c(n(C3OC(CO)C(O)C(O)C3O)c1=S)CCCC2` (configuration not stated), the GI50 with NCI-H522 was > 100 µM (inactive); in the assay with HCT-15, over 100 µM; with IGROV-1 it was > 100 µM (inactive); with A549, > 100 µM (inactive); in the assay with CCRF-CEM it was > 100 µM (inactive); in the assay with SK-MEL-28 it was > 100 µM (inactive). Besides, the GI50 in the assay with NCI-H23, in the assay on A498, in the assay with UACC-62, in the assay on M14, in the assay on NCI/ADR-RES and with 786-0 was > 100 µM (inactive) each time. The GI50 in the assay on NCI-H226 was > 100 µM (inactive); in the assay on HT-29, > 100 µM (inactive); in the assay with MOLT-4, > 100 µM (inactive); with NCI-H460, > 100 µM (inactive); in the assay with SNB-75, 0.0239 µM (active); with CAKI-1, > 100 µM (inactive).

As for `FC(F)(F)c1cccc(-c2nc3ccccc3c3c2[C@@]2(N4CCCC4)CCCC[C@@H]32)c1`, the GI50 in the assay with NCI-H522 is 13.3 µM (inactive); with IGROV-1, 12 µM (inactive); with A549, 31.7 µM (inactive); in the assay with CCRF-CEM, 29.6 µM (inactive); with NCI-H23, 32.4 µM (inactive); in the assay with A498, 31.2 µM (inactive). For the same compound, the GI50 is 23.5 µM (inactive) with UACC-62; 66.2 µM (inactive) in the assay with M14; > 100 µM (inactive) in the assay on NCI/ADR-RES; 38.4 µM (inactive) in the assay with 786-0; 51.2 µM (inactive) in the assay with NCI-H226; 29.1 µM (inactive) in the assay on HT-29. Further, the GI50 with MOLT-4 is 28.1 µM (inactive); in the assay with NCI-H460, 28.1 µM (inactive); in the assay on RPMI-8226, 17.5 µM (inactive); in the assay on SNB-75 it was 30.1 µM (inactive); in the assay on CAKI-1 it was 50.9 µM (inactive).

Consider `CCOC(=O)/C(=C\c1c(C)[nH]c2ccccc12)P(=O)(OCC)OCC`, for which the GI50 with NCI-H522 was > 100 µM (inactive); in the assay on HCT-15 it was over 100 µM; with IGROV-1, > 100 µM (inactive); in the assay on A549, > 100 µM (inactive); in the assay with SK-MEL-28, > 100 µM (inactive); in the assay on NCI-H23 it was > 100 µM (inactive). The GI50 in the assay on A498, in the assay on UACC-62, with M14, in the assay with NCI/ADR-RES, in the assay with 786-0 and in the assay on NCI-H226 was > 100 µM (inactive) each time. For the same compound, the GI50 with HT-29, with MOLT-4, in the assay on NCI-H460, in the assay with RPMI-8226, in the assay on SNB-75 and in the assay on CAKI-1 was > 100 µM (inactive) in each case.

Consider `COC(=O)c1ccccc1C1=C([N+](=O)[O-])C(c2ccccc2)C(C#N)=C(N)O1` (configuration not stated), for which the GI50 in the assay on NCI-H522 was 15 µM (inactive); with HCT-15, 19.8 µM; with IGROV-1, > 100 µM (inactive); in the assay on A549 it was > 100 µM (inactive); in the assay with CCRF-CEM it was 30.1 µM (inactive); in the assay with SK-MEL-28, > 100 µM (inactive). The GI50 in the assay with NCI-H23 is 23.4 µM (inactive); in the assay with UACC-62, 30.7 µM (inactive); in the assay on M14 it was > 100 µM (inactive); in the assay with NCI/ADR-RES it was > 100 µM (inactive); in the assay with 786-0, 35.6 µM (inactive); with NCI-H226 it was > 100 µM (inactive). The GI50 in the assay with HT-29 is 96.6 µM (inactive); with MOLT-4 it was 35 µM (inactive); with NCI-H460 it was > 100 µM (inactive); in the assay on RPMI-8226 it was 34.5 µM (inactive); in the assay on SNB-75, 96.2 µM (inactive).

Regarding `CC1(C)[C@@H](Cn2ccc(=O)[nH]c2=O)CC[C@@]1(C)CO`, the GI50 in the assay on HCT-15 is over 100 µM; with A549 it was > 100 µM (inactive); in the assay with CCRF-CEM, > 100 µM (inactive); in the assay with SK-MEL-28, > 100 µM (inactive); in the assay on A498, > 100 µM (inactive); in the assay with UACC-62 it was > 100 µM (inactive). The GI50 in the assay on M14, with NCI/ADR-RES, in the assay with 786-0, in the assay with NCI-H226, in the assay with SNB-75 and in the assay on CAKI-1 was > 100 µM (inactive) in each case.
